Measured values: patent publication EP4667458A1 (Kanaph Therapeutics Inc., priority 2023, dated 2024)
pIC50: −log10 of the molar value.

Legend:
[1] = tested on: lung cancer cell line NCI-H358 having the KRAS G12C variant; test: Cell viability (Cell Titer-Glo) on combined administration, NCI-H358; format: cell-based
Description: When the example compound was used in combination with an anticancer agent, the effect on the growth ability of cancer cells expressing KRAS variant or EGFR variant was confirmed. In order to confirm the effect of the example compound in combination with a MEK inhibitor or a KRAS G12C inhibitor in the cell line having the KRAS variant, the cell growth inhibitory effect by the treatment of the example compound in combination with a MEK inhibitor or a KRAS G12C inhibitor was confirmed in the gastric cancer cell line SNU-1 and the pancreatic cancer cell line KP4 having the KRAS G12D variant, the lung cancer cell line NCI-H358 and the pancreatic cancer cell line MIA PaCa-2 having the KRAS G12C variant, the colorectal cancer cell line SW480 having the KRAS G12V variant, the lung cancer cell line A549 having the KRAS G12S variant, the colorectal cancer cell line LoVo having the KRAS G13D variant. In addition, in order to confirm the effect of the example compound in combination with an EGFR inhibitor in the cell line having the EGFR variant, the cell growth inhibitory effect by the treatment of the example compound in combination with an EGFR inhibitor was confirmed in the lung cancer cell line H1975 having the EGFR L858R/T790M variant and the lung cancer cell line HCC827 having the EGFR Del19 variant. […]

KRAS^G12C::SOS1 = target: T1, KRAS^G12C::SOS1 (Homo sapiens, UniProt Q07889); test: KRAS G12C::SOS1 protein-protein interaction (PPI) inhibition assay (HTRF binding kit)
T1 sequence (Q07889 1-1333): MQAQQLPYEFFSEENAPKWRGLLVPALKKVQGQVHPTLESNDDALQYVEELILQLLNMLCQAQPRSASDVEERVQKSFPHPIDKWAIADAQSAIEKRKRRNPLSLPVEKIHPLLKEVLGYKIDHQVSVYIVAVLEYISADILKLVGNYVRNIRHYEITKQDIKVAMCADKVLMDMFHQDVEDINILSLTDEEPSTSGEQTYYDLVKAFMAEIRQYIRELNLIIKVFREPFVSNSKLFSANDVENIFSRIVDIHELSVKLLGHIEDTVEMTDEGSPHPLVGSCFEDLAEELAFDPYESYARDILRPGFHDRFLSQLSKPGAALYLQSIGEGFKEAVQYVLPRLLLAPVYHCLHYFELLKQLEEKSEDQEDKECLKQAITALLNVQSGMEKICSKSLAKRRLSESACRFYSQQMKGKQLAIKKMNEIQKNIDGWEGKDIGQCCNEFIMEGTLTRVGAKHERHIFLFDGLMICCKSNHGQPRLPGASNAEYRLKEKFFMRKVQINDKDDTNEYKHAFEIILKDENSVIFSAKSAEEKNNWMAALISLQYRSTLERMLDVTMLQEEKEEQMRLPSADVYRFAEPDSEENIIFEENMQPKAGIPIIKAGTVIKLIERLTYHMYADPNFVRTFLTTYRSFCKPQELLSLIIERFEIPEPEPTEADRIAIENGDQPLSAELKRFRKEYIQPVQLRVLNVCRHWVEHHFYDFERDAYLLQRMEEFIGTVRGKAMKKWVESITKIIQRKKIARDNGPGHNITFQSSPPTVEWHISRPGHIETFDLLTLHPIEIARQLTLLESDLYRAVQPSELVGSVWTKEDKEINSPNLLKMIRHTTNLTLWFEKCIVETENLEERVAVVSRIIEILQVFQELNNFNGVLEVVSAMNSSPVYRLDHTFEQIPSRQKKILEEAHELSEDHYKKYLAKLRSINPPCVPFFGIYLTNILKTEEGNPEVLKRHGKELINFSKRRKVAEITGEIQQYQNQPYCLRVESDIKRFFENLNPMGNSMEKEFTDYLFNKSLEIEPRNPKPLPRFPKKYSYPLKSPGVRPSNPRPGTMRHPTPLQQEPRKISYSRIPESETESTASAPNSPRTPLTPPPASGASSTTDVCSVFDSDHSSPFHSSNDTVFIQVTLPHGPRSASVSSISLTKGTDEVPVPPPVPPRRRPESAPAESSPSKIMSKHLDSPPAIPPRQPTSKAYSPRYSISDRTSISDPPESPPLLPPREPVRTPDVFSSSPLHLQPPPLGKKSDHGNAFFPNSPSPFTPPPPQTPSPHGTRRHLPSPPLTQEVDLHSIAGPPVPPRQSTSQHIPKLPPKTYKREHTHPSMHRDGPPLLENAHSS
Description: Protein-protein interaction between SOS1 and KRAS^G12C was detected using KRAS G12C/SOS1 binding kit from CISBIO (64KRASG12PEH, CISBIO, FRANCE) according to the manufacturer's assay method. Briefly, the maximum concentration of an inhibitor sample was set to be 3 µM, and the inhibitor sample was diluted 7 times by 1/3, and samples having a total of 8 concentrations were prepared. In HTRF (Homogeneous Time-Resolved Fluorescence) exclusive 96-well low-volume white plate (66PL96005, CISBIO, FRANCE), 2 µL of an inhibitor sample prepared for each concentration, 5 µL of a mixed solution of Tag1-labeled KRAS^G12C protein and GTP diluted with the dilution solution provided by the manufacturer, and 5 µL of Tag2 labeled SOS1 protein were mixed, and added with 8 µL of a diluted solution where anti-Tag1 KRAS^G12C XL665 (HTRF acceptor) labeled antibody and anti-Tag2 SOS1 Terbium cryptate (HTRF donor) labeled antibody were mixed in an equal ratio and incubated at room temperature for 2 h.

SOS1 = target: T2, SOS1 (Homo sapiens, UniProt Q07889); test: SOS-catalyzed nucleotide exchange assay (HTRF, SOS1-mediated GTP loading of KRAS G12D); format: biochemical; conditions: GST-KRAS G12D, HIS-SOS1cat, EDA-GTP-DY-647P1; compound 128 pM to 10 µM; read-out: SOS-catalyzed nucleotide exchange assay (IC50 range, Grade)
T2 construct: adding equal amounts of HIS-SOS1cat (160 nM; Cytoskeleton, US); His; purchased Cytoskeleton, US
T2 sequence (Q07889 564-1049 limits assumed): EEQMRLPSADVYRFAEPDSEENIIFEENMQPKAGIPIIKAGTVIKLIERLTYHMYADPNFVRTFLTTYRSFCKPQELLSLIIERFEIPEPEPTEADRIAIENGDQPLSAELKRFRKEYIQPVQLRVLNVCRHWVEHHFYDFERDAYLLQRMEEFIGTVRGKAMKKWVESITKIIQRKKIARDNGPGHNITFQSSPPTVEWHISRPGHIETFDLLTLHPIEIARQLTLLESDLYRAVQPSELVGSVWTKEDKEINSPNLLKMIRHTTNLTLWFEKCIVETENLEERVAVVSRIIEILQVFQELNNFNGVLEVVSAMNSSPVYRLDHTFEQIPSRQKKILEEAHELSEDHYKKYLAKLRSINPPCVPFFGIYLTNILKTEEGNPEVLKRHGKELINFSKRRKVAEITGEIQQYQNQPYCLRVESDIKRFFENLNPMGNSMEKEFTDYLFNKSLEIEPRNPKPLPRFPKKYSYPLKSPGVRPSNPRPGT
Outline: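 SOS1cat (HIS-tagged) preincubated 10 min at room temperature with compound (128 pM-10 µM), then GST-KRAS G12D with anti-GST terbium added; GTP loading tracked as HTRF with a DY-647P1 GTP analogue after 30 min, buffer HEPES pH 7.4. GEF-free wells for normalization; IC50 derived.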

| SMILES | pIC50 (KRAS^G12C::SOS1) | pIC50 (SOS1) | cell viability ([1]; INK-128 (3.2-100 nM) in combination with Example 295 (0-300 nM) compared to INK-128 alone, 72 h, FIG. 1) | cell viability ([1]; sotorasib (0.14-10 nM) in combination with Example 295 (0-300 nM) compared to sotorasib alone, FIG. 2) |
| --- | --- | --- | --- | --- |
| C[C@@H](NC(=O)c1ccc(=O)n(-c2ccccc2CO)n1)c1cc(N)cc(C(F)(F)F)c1 [Example 156, N-[(1R)-1-[3-amino-5-(trifluoromethyl)phenyl]ethyl]-1-[2-(hydroxymethyl)phenyl]-6-oxo-pyridazine-3-carboxamide] | 5.00 to 6.00 | 5.00 to 6.00 | – | – |
| CC(C)Oc1ccc(-n2nc(C(=O)N[C@H](C)c3cc(N)cc(C(F)(F)F)c3)ccc2=O)cc1 [Example 142, N-[(1R)-1-[3-amino-5-(trifluoromethyl)phenyl]ethyl]-1-(4-isopropoxyphenyl)-6-oxo-pyridazine-3-carboxamide] | > 6.00 | > 6.00 | – | – |
| C[C@@H](NC(=O)c1ccc(=O)n(-c2cccnc2F)c1)c1cc(N)cc(C(F)(F)F)c1 [Example 148, N-[(1R)-1-[3-amino-5-(trifluoromethyl)phenyl]ethyl]-1-(2-fluoro-3-pyridyl)-6-oxo-pyridine-3-carboxamide] | < 5.00 | < 5.00 | – | – |

The next lines start with results.

| pIC50 (KRAS^G12C::SOS1) | pIC50 (SOS1) | SMILES | cell viability ([1]; INK-128 (3.2-100 nM) in combination with Example 295 (0-300 nM) compared to INK-128 alone, 72 h, FIG. 1) | cell viability ([1]; sotorasib (0.14-10 nM) in combination with Example 295 (0-300 nM) compared to sotorasib alone, FIG. 2) |
| --- | --- | --- | --- | --- |
| > 6.00 | – | CNCc1ccc(Cl)cc1-c1ccc([C@@H](C)NC(=O)c2ccc(=O)n(-c3ccccc3F)n2)s1 [Example 295, N-[(1R)-1-[5-[5-chloro-2-(methylaminomethyl)phenyl]-2-thienyl]ethyl]-1-(2-fluorophenyl)-6-oxo-pyridazine-3-carboxamide] | decreased | decreased |
| > 6.00 | > 6.00 | C[C@@H](NC(=O)c1ccc(=O)n(-c2ccc(F)c(-c3cnnn3C)c2)n1)c1cccc(C(F)(F)F)c1F [Example B06, N-[(R)-1-[2-fluoro-3-(trifluoromethyl)phenyl]ethyl]-1-[4-fluoro-3-(1-methyl-1H-1,2,3-triazol-5-yl)phenyl]-6-oxo-1,6-dihydro-3-pyridazinecarboxamide] | – | – |
| > 6.00 | > 6.00 | C[C@@H](NC(=O)c1ccc(=O)n(-c2cc(CO)ccc2F)n1)c1cc(N)cc(C(F)(F)F)c1 [Example 159, N-[(1R)-1-[3-amino-5-(trifluoromethyl)pheny 1]ethyl]-1-[2-fluoro-5-(hydroxymethyl)phenyl] -6-oxo-pyridazine-3-carboxamide] | – | – |
| > 6.00 | 5.00 to 6.00 | C[C@@H](NC(=O)c1ccc(=O)n(-c2cccc3[nH]ccc23)n1)c1cc(N)cc(C(F)(F)F)c1 [Example 160, N-[(1R)-1-[3-amino-5-(trifluoromethyl)phenyl]ethyl]-1-(1H-indol-4-yl)-6-oxo-pyridazine-3-carboxamide] | – | – |
